According to patent US20250051340A1, “TRIAZOLONE DERIVATIVE SALT AS NEUTROPHIL ELASTASE INHIBITOR” (CHIESI FARMACEUTICI S.P.A., priority 2021, published 2025):
Read-outs that look alike come from different tables or passages of the source.

Key:
[1] = rat, in vivo
Experimental: (§1) In addition, the effects of different (2-{5-Cyano-2-[(R)-6-methoxycarbonyl-7-methyl-3-oxo-8-(3-trifluoromethyl-phenyl)-2,3,5,8-tetrahydro-[1,2,4]triazolo[4,3-a]pyrimidin-5-yl]-phenyl}-ethyl)-trimethyl-ammonium salts on lung function parameters were also assessed in rats by head-out plethysmography in order to compare the potential local adverse effects of each salt of (2-{5-Cyano-2-[(R)-6-methoxycarbonyl-7-methyl-3-oxo-8-(3-trifluoromethyl-phenyl)-2,3,5,8-tetrahydro-[1,2,4]triazolo[4,3-a]pyrimidin-5-yl]-phenyl}-ethyl)-trimethyl-ammonium.
(§2) The duration of aerosol exposure was of 60 minutes. On the day of dosing, animals were placed into the plethysmograph tubes for at least 30 minutes prior to dosing and respiratory parameters: respiratory rate, tidal volume, and PenH were continuously recorded for at least 30 minutes pre-dose, 60 minutes during dosing (exposure) and 90 minutes post-exposure. The respiratory parameters were recorded every minute for a total period of 3 hours using the EMMS eDacq system (PLY231, EMMS, Bordon, United Kingdom).

[2] = target: T1, human neutrophil elastase (HNE) (Homo sapiens, UniProt P08246); test: HNE-induced lung injury assay (BAL fluid haemoglobin content); type: in vivo, rat; conditions: i.t.; for % Inhibition of HNE-induced BAL fluid haemoglobin content at 3 μg/Kg / % Inhibition of HNE-induced BAL fluid haemoglobin content at 30 μg/Kg / % Inhibition of HNE-induced BAL fluid haemoglobin content at 300 μg/Kg: male Sprague Dawley rats, wet formulation, 3 h before HNE 100 U/rat, vs HNE-treated vehicle control
T1 sequence (P08246 30-267): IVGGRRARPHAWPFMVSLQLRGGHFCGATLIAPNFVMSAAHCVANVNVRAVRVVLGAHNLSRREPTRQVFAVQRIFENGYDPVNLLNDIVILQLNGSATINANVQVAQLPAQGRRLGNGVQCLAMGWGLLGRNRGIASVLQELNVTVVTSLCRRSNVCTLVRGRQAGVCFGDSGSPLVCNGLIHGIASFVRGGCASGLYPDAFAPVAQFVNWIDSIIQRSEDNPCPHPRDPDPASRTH
Experimental: Then, one hour after the PBS or HNE administration animals were sacrificed and bronchoalveolar lavage (BAL) was performed in order to assess the HNE-induced lung injury measured as haemoglobin concentration. BAL fluid samples were centrifuged at 800 g for 15 min at 4° C. The supernatant was collected, and the pellet was re-suspended in 3 mL of distilled water. A standard curve with known volumes of lysated blood cells was made from a stem solution of lysated blood cells. 150 µL of standards and samples were transferred in duplicate to a 96-well plate and the OD measured at 412 nm. Percentage of compound efficacy (assessed as inhibition of HNE-induced haemoglobin content in BALF) was calculated following this formula: 100−[(mean of haemoglobin concentration of test compound treated rats exposed to HNE)−(mean of haemoglobin concentration of vehicle treated rats exposed to PBS)]/[(mean of haemoglobin concentration of vehicle treated rats exposed to HNE)−(mean of haemoglobin concentration of vehicle treated rats exposed to PBS)]×100.

[3] = Solubility in water at RT; type: physicochemical
Experimental: The complete dissolution of the material was visually observed.
A saturated solution of hemi-pamoate salt in water at RT was prepared, with a theoretical concentration of about 2 mg/ml. The solid in excess was filtered out and the content of the solution was quantified by LC/UV at different check points until 24 hours.

[4] = Head-out plethysmography (HOP) assay, lung function parameters; conditions: male Wistar rats, single snout-only inhalation, dry powder, 0.7 and 7 mg/kg, during or after dosing
Experimental: as §1, §2

[5] = thermodynamic from solid, read-out: Solubility

COC(=O)C1=C(C)N(c2cccc(C(F)(F)F)c2)c2n[nH]c(=O)n2[C@@H]1c1ccc(C#N)cc1CC[N+](C)(C)C.[Br-] [Bromide, (2-{5-Cyano-2-[(R)-6-methoxycarbonyl-7-methyl-3-oxo-8-(3-trifluoromethyl-phenyl)-2,3,5,8-tetrahydro-[1,2,4]triazolo[4,3-a]pyrimidin-5-yl]-phenyl}-ethyl)-trimethyl-ammonium bromide]
% of Reduction of tidal volume ([1]; male, Wistar): 38% | increase in PenH area compared to vehicle ([1]; male, Wistar, 0.55 mg/kg): about 8 fold | increase in respiratory rate, maximum effect ([1]; male, Wistar, 0.55 mg/kg): 59% | increase in PenH area compared to vehicle ([1]; male, Wistar, 5.5 mg/kg): ~20 fold | reduction in tidal volume, maximum ([1]; male, Wistar, 5.5 mg/kg): 38%

COC(=O)C1=C(C)N(c2cccc(C(F)(F)F)c2)c2n[nH]c(=O)n2[C@@H]1c1ccc(C#N)cc1CC[N+](C)(C)C [Hemi-pamoate, (2-{5-Cyano-2-[(R)-6-methoxycarbonyl-7-methyl-3-oxo-8-(3-trifluoromethyl-phenyl)-2,3,5,8-tetrahydro-[1,2,4]triazolo[4,3-a]pyrimidin-5-yl]-phenyl}-ethyl)-trimethyl-ammonium hemi-pamoate]
% of Reduction of tidal volume [1]: No variation of any lung function parameters | % Inhibition of HNE-induced BAL fluid haemoglobin content at 3 μg/Kg [2]: 30% | % Inhibition of HNE-induced BAL fluid haemoglobin content at 30 μg/Kg ([2]; 30 μg/kg): 43% | % Inhibition of HNE-induced BAL fluid haemoglobin content at 300 μg/Kg ([2]; 300 μg/kg): 80% | inhibition of BAL fluid haemoglobin levels, dry powder, 30 μg/kg ([2]; rats, dry powder formulation, 30 μg/kg, vs HNE-treated vehicle (lactose) control): 4% | inhibition of BAL fluid haemoglobin levels, dry powder, 300 μg/kg ([2]; rats, dry powder formulation, 300 μg/kg, vs HNE-treated vehicle (lactose) control): 54% | inhibition of BAL fluid haemoglobin levels, dry powder, 600 μg/kg ([2]; rats, dry powder formulation, 600 μg/kg, vs HNE-treated vehicle (lactose) control): 60% | solubility [3, 5]: 0.17 mg/mL

COC(=O)C1=C(C)N(c2cccc(C(F)(F)F)c2)c2n[nH]c(=O)n2[C@@H]1c1ccc(C#N)cc1CC[N+](C)(C)C.CS(=O)(=O)[O-] [Methanesulfonate, (2-{5-Cyano-2-[(R)-6-methoxycarbonyl-7-methyl-3-oxo-8-(3-trifluoromethyl-Phenyl)-2,3,5,8-tetrahydro-[1,2,4]triazolo[4,3-a]Pyrimidin-5-yl]-phenyl}-ethyl)-trimethyl-ammonium methanesulfonate]
% of Reduction of tidal volume ([1]; male, Wistar): 35-39% | increase of PenH compared to vehicle ([1]; male, Wistar, 0.6 mg/kg): about 8 fold | increase of respiratory rate, peak effect ([1]; male, Wistar, 0.6 mg/kg): 32% | reduction of tidal volume, peak effect ([1]; male, Wistar, 0.6 mg/kg): 35% | increase of PenH compared to vehicle ([1]; male, Wistar, 6 mg/kg): ~16 fold | increase of respiratory rate, peak effect ([1]; male, Wistar, 6 mg/kg): 54% | reduction of tidal volume, peak effect ([1]; male, Wistar, 6 mg/kg): 39% | % Inhibition of HNE-induced BAL fluid haemoglobin content at 3 μg/Kg [2]: 19% | % Inhibition of HNE-induced BAL fluid haemoglobin content at 30 μg/Kg ([2]; 30 μg/kg): 30% | % Inhibition of HNE-induced BAL fluid haemoglobin content at 300 μg/Kg ([2]; 300 μg/kg): 73% | solubility ([3]; methanesulfonate): >200 mg/mL | solubility [3, 5]: > 200 mg/mL

(2-{5-Cyano-2-[(R)-6-methoxycarbonyl-7-methyl-3-oxo-8-(3-trifluoromethyl-phenyl)-2,3,5,8-tetrahydro-[1,2,4]triazolo[4,3-a]pyrimidin-5-yl]-phenyl}-ethyl)-trimethyl-ammonium hemi-pamoate
effect on lung function parameters (respiratory rate, tidal volume, PenH) [4]: does not affect any lung function parameters
